Test results from patent US20200140821A1, “EX VIVO MEAT PRODUCTION” (WILD TYPE, INC., priority 2017, published 2020).
Entries after “also recorded” stand apart in the source; their conditions may differ.

System: duck hepatocytes
Assay: Induction of steatosis in cultured duck hepatocytes by incubation with fatty acid
Type: cell-based

percentage of steatotic hepatocytes (2 μM linoleic acid, FIG. 16B): above 85%
Compound: CCCCC/C=C\C/C=C\CCCCCCCC(=O)O [linoleic acid]
dose response: percentage of hepatocytes with steatosis versus concentration (0, 0.1, 0.25, 0.5, 1, 2 μm, FIG. 16B): corresponding increase in the percentage of hepatocytes with steatosis
induction of steatosis (accumulation of intracellular lipid-containing vesicles) (2 μM, compared to untreated control, FIG. 16A): successful induction of steatosis; also recorded: successfully induced to undergo steatosis
